{"source": "patent US10238641B2", "about": "“Materials and methods for diagnosis, prevention and/or treatment of stress disorders and conditions associated with A-beta peptide aggregation” (The United States of America as represented by the …, priority 2008, dated 2019)", "key": {"cortical cells": {"tested_on": "cortical cells", "assay": "Survival of cortical cells exposed to cotinine alone, MTT assay", "format": "cell-based, rat", "conditions": "various concentrations of cotinine, 48 hours", "procedure": "Cortical cells were subjected to various concentrations of cotinine and cell viability was assessed after 48 hours by MTT assay (see FIG. 1). Statistical significance of the differences in MTT values was assessed by one-way ANOVA with Tukey post-test. ns, not significant difference with (P>0.05)."}, "Aβ1-42 peptide": {"target": "T1, Aβ1-42 peptide (Homo sapiens, UniProt P05067)", "T1 construct": "Aβ1-42 peptide was obtained from American Peptide; purchased American Peptide (Sunnyvale, Calif., USA)", "T1 sequence (P05067 672-713 limits assumed)": "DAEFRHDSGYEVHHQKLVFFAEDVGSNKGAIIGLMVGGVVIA", "assay": "AFM analysis of Aβ1-42 fibrillation", "format": "biochemical", "procedure": "Since the aggregation behavior of Aβ is dependent on the presence of small concentrations of aggregated forms of the peptide, that are present in many commercial samples, we prepared the Aβ solution by first dissolving the peptide in Hexafluoroisopropanol (HFIP), a protocol that produces a starting solution constituted only of Aβ monomers (Chromy et al. (2003)). Lyophillized Aβ1-42 (American peptide) (1 mg) was dissolved in HFIP, evaporated and re-dissolved in 22 μl of dimethyl sulfoxide (DMSO, St. Louis, Mo.). These peptide preparations were then diluted in PBS buffer pH 7.4 alone or PBS plus cotinine to obtain solutions containing 1 mM Aβ1-42 with and without 2 mM cotinine. Then the Aβ1-42 solutions were incubated for 10 days and the formation of oligomers and fibers was examined.\n20 μl aliquots of Aβ solutions were deposited on freshly cleaned and dried silicon wafers (approximately 1 mm thick). After waiting for 10 min, non-adsorbed portions of the samples were washed with de-ionized water (2000 μl). The wet surface of the silicon wafer was then dried using gentle flow of air.\nThe AFM analysis was performed using an AFM apparatus (AFM, βA multimode SPM, Model no. 920-006-101, Vecco) that permits the acquisition of images using a tapping mode approach. This approach allows intermittent contact of the tip with the sample and minimizes the chances of deformation of the peptide samples. The cantilever and the tip were made up of silicon and the cantilever force constant was approximately 20-100 N/m with the resonance frequency between 200-400 khz. The scan rate was between 1.0 to 1.2 Hz. The analysis of fibrils and oligomers was performed using the software NanoScope Control, version 5.30.\nTo investigate whether cotinine in addition to Aβ oligomerization also affected fibril formation, we used Atomic force miscroscopy (AFM) to analyze Aβ aggregation. The solutions were prepared dissolving Aβ in HFIP and after evaporation, in PBS alone or containing cotinine and incubated at 37° C. for 3 and 10 days."}}}
{"molecule": "CN1C(=O)CC[C@H]1c1cccnc1", "note": "[cotinine]", "values": [{"measurement": "survival of cortical neurons exposed to cotinine alone", "setting": "cortical cells", "result": "not Affected"}, {"measurement": "effect on Aβ aggregation and fibril length (AFM)", "setting": "Aβ1-42 peptide; 1 mM Aβ1-42 + 2 mM cotinine, 10 days 37° C.", "result": "reduced Aβ aggregation and the length of Aβ fibrils"}, {"measurement": "average length of Aβ fibrils", "setting": "Aβ1-42 peptide; 1 mM Aβ1-42 + 2 mM cotinine, 10 days 37° C., n=23, without cotinine 345±42", "result": "223±36"}, {"measurement": "average diameter of the fibers", "setting": "Aβ1-42 peptide; unchanged by presence of cotinine", "result": "22-24 nm"}]}
